Experimental data taken from PubChem BioAssay AID2060602 (Molecular Pharmacology Branch, DTP, NCI, 2025).

System: 648629-189-R-J1-PDC complex spheroids viability
Assay: Anticancer human tumor 648629-189-R-J1-PDC patient-derived bladder carcinoma cell line growth inhibition [CLK]
Details: for IC50: curve of first compound; for viability, T/C: stronger effect = lower value
Procedure, shortened: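 Patient-derived tumor cells grown as complex spheroids with HUVEC endothelial cells and mesenchymal stem cells, treated with drug combinations. Concentrations descend in half-log steps from near clinical Cmax, or from 10 microM if Cmax unknown.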
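Throughout, for viability, T/C: drug exposure lasted seven days before viability readout; 100% = DMSO vehicle control wells.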

Structure (SMILES): C=CC(=O)Nc1cc(Nc2nccc(-c3cn(C)c4ccccc34)n2)c(OC)cc1N(C)CCN(C)C + CNC(=O)c1ccc(Nc2nc(OC3CCCC3)c3c(-c4ccc5nc(C)oc5c4)c[nH]c3n2)c(OC)c1
- IC50 (second compound 0.0316 µM): > 300 nM
- IC50 (second compound 0.1 µM): 132 nM
- IC50 (second compound 0.316 µM): < 0.949 nM
- IC50 (second compound 1 µM): < 0.949 nM
- IC50 (second compound 3.16 µM): < 0.949 nM
- IC50 (second compound 10 µM): < 0.949 nM
- viability, T/C (second compound 0.0316 µM, first compound 0.000949 µM): 92.6%
- viability, T/C (second compound 0.0316 µM, first compound 0.003 µM): 103%
- viability, T/C (second compound 0.0316 µM, first compound 0.00949 µM): 102%
- viability, T/C (second compound 0.0316 µM, first compound 0.03 µM): 97.1%
- viability, T/C (second compound 0.0316 µM, first compound 0.0949 µM): 100%
- viability, T/C (second compound 0.0316 µM, first compound 0.3 µM): 95.4%
- viability, T/C (second compound 0.1 µM, first compound 0.000949 µM): 83.9%
- viability, T/C (second compound 0.1 µM, first compound 0.003 µM): 73.5%
- viability, T/C (second compound 0.1 µM, first compound 0.00949 µM): 69.3%
- viability, T/C (second compound 0.1 µM, first compound 0.03 µM): 66.2%
- viability, T/C (second compound 0.1 µM, first compound 0.0949 µM): 51%
- viability, T/C (second compound 0.1 µM, first compound 0.3 µM): 42.6%
- viability, T/C (second compound 0.316 µM, first compound 0.000949 µM): 27.9%
- viability, T/C (second compound 0.316 µM, first compound 0.003 µM): 27.3%
- viability, T/C (second compound 0.316 µM, first compound 0.00949 µM): 21.8%
- viability, T/C (second compound 0.316 µM, first compound 0.03 µM): 19%
- viability, T/C (second compound 0.316 µM, first compound 0.0949 µM): 22.1%
- viability, T/C (second compound 0.316 µM, first compound 0.3 µM): 15.5%
- viability, T/C (second compound 1 µM, first compound 0.000949 µM): 21.3%
- viability, T/C (second compound 1 µM, first compound 0.003 µM): 19.4%
- viability, T/C (second compound 1 µM, first compound 0.00949 µM): 23.2%
- viability, T/C (second compound 1 µM, first compound 0.03 µM): 16.1%
- viability, T/C (second compound 1 µM, first compound 0.0949 µM): 16.5%
- viability, T/C (second compound 1 µM, first compound 0.3 µM): 13.2%
- viability, T/C (second compound 3.16 µM, first compound 0.000949 µM): 18.7%
- viability, T/C (second compound 3.16 µM, first compound 0.003 µM): 19.8%
- viability, T/C (second compound 3.16 µM, first compound 0.00949 µM): 16.6%
- viability, T/C (second compound 3.16 µM, first compound 0.03 µM): 16.1%
- viability, T/C (second compound 3.16 µM, first compound 0.0949 µM): 16.3%
- viability, T/C (second compound 3.16 µM, first compound 0.3 µM): 14.8%
- viability, T/C (second compound 10 µM, first compound 0.000949 µM): 18.5%
- viability, T/C (second compound 10 µM, first compound 0.003 µM): 22.1%
- viability, T/C (second compound 10 µM, first compound 0.00949 µM): 22.6%
- viability, T/C (second compound 10 µM, first compound 0.03 µM): 17.6%
- viability, T/C (second compound 10 µM, first compound 0.0949 µM): 17.9%
- viability, T/C (second compound 10 µM, first compound 0.3 µM): 13.8%
